Reference: PMC7702303, “Biochemical and transcript level differences between the three human phosphofructokinases show optimisation of each isoform for specific metabolic niches” (Biochemical Journal, 2020)
Where “and” joins values, the source holds several entries; their conditions need not be identical. Equal entries are not always repeated. Where two headings read alike, the source gives them in different places.

Key:
recombinant human PFK-M = biological target: T1, recombinant human PFK-M (Homo sapiens, UniProt P08237); assay: ALDO-TIM-G3PDH enzyme-linked kinetic assay, PFK-M; assay type: biochemical
T1 construct: made in house; host or cells: PFK-deficient Saccharomyces cerevisiae
T1 sequence (P08237 1-780): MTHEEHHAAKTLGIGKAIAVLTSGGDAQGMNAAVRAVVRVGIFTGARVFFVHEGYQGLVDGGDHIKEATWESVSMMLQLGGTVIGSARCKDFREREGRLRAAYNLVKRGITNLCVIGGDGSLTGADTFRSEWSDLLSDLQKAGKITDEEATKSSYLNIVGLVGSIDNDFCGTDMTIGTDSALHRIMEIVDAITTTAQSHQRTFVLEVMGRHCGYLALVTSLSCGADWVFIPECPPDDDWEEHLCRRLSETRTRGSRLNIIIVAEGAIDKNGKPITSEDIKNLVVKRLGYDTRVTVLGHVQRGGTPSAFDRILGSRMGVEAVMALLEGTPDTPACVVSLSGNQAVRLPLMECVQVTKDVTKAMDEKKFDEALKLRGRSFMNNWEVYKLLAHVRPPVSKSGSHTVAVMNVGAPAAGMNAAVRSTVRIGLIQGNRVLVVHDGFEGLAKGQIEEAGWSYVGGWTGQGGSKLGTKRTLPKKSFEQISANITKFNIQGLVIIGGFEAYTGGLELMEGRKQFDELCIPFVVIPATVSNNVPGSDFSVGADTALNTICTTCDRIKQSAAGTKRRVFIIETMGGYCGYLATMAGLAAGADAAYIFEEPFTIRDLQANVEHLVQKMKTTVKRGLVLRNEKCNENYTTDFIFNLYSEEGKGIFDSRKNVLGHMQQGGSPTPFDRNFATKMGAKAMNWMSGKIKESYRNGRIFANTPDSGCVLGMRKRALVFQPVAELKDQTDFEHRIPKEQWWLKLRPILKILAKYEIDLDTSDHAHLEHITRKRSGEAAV
Description: (§1) Recombinant human PFKs were expressed in PFK-deficient Saccharomyces cerevisiae and purified using the methods described previously, adapting earlier materials and protocols. Production of PFK intended for use in ATP titration experiments used 1 mM F6P as a tetramer stabilising agent in protein purification and storage buffers. Production of PFK intended for use in F6P titration experiments used 1 mM ATP as a tetramer stabilising agent in protein purification and storage buffers. Experimental details on the purification and characterisation procedures including figures showing SDS–PAGE gels of the highly pure PFKs used in the kinetic experiments described in this work have been recently published.
(§2) Assay buffer consisted of 50 mM TEA, 100 mM KCl, 10 mM MgCl2, 1 mM Tris(2-carboxyethyl)phosphine hydrochloride (TCEP), 10% glycerol, pH 7.4. Assay mix consisted of 5 units/ml glycerol-3-phosphate dehydrogenase (G3PDH, Sigma–Aldrich G6880), 2.5 units/ml aldolase (Sigma–Aldrich A2714), 25 units/ml triosephosphate isomerase (TIM, Sigma–Aldrich T6258), and 1.25 mM NADH. ATP and F6P were obtained from Sigma–Aldrich (A2383 and F3627, respectively). For ATP titrations, 38 µl of buffer or ligand were added to a clear non-binding 96-well plate. 40 µl of assay mix containing 10 mM F6P (final concentration 4 mM) was added and the plate was incubated at 25°C for 5 min. An amount of 2 µl of PFK isoforms were added to each well from stock concentrations of 150 µg/ml and the reaction was immediately started with 20 µl of ATP at varying concentrations. For F6P titrations, 30 µl of buffer or ligand was added to a clear non-binding 96-well plate. An amount of 40 µl of assay mix containing 1.25 mM ATP (final concentration 0.5 mM) was added and the plate was incubated at 25°C for 5 min. An amount of 5 µl of PFK isoforms were added to each well from stock concentrations of 200 µg/ml and the reaction was immediately started with 20 µl F6P at varying concentrations. All ligands and substrates (including ATP) were used at pH 7.4. All metabolites were obtained from Sigma–Aldrich unless otherwise stated. […] A SpectraMax M5 Multi-Mode Microplate Reader was used to measure A340nm at 13 s intervals for 10 min. All experiments were performed in triplicate unless otherwise stated.
(§3) Time-dependent absorbance change was converted into rate of NADH oxidation (µM s^−1) or specific activity (µmol min^−1 mg protein^−1) using the Beer-Lambert law (molar extinction coefficient of NADH 6.22 mM^−1 cm^−1). The initial rate of reaction was used to avoid accumulation of ADP, which activates PFK, interfering with the determination of kinetic properties. Non-linear regression analysis was performed on substrate titration data using GraphPad Prism 7, with curves fitted using allosteric sigmoidal models, enabling determination of steady-state kinetic values.

PFK = system: PFK; parameters: key to Effect (activator or inhibitor of PFK): “+” indicates activator; “-“ indicates inhibitor; details: cited from earlier work; for Effect (activator or inhibitor of PFK): published literature, ref selected references in Supplementary Table 1; for IC50 or AC50 (activator) / IC50: asterisk not explained, ref Moreno-Sanchez et al., 2012; for IC50: read-out: IC50 or AC50 (inhibitor)
recombinant human PFK-P = biological target: T2, recombinant human PFK-P (Homo sapiens, UniProt Q01813); assay: ALDO-TIM-G3PDH enzyme-linked kinetic assay, PFK-P; assay type: biochemical
T2 construct: made in house; host or cells: PFK-deficient Saccharomyces cerevisiae
T2 sequence (Q01813 1-784): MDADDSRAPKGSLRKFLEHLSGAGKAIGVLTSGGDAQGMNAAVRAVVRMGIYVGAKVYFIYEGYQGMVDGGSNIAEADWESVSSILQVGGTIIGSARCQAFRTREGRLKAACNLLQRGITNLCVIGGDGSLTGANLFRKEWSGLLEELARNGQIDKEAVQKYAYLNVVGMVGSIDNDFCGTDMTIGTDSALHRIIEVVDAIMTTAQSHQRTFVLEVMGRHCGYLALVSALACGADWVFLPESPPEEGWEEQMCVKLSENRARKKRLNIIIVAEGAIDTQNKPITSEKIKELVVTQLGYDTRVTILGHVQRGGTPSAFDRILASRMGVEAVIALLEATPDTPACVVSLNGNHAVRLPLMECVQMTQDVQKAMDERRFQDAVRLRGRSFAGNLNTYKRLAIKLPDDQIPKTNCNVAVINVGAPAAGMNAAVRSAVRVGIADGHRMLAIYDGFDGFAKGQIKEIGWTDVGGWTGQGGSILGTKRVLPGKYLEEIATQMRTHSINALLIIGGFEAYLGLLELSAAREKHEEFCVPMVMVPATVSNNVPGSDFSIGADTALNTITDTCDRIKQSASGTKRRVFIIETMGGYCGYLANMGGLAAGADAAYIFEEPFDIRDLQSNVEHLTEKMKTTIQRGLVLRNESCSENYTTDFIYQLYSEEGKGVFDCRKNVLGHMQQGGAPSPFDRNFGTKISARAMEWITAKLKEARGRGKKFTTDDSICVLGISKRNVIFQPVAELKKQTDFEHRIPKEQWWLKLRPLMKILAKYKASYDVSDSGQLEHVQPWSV
Description: as §1, §2, §3

[1] = modulator 600 µM, ATP 0.5mM, N=3, mean (SD)
[2] = modulator 600 µM, F6P 4mM, N=3, mean (SD)
[3] = second of three values marked *
[4] = modulator 1200 µM, ATP 0.5mM, N=3, mean (SD)
[5] = modulator 1200 µM, F6P 4mM, N=3, mean (SD)
[6] = 1 mM ATP compared with 0.5 mM ATP
[7] = ATP titration, F6P 4 mM, n = 6, mean (SD)
[8] = Hill value, ATP titration, F6P 4 mM, n = 6, mean (SD)
[9] = control without modulator, run alongside modulator experiments, F6P 4mM, N=3, mean (SD)
[10] = dose-response, read-out: IC50^citrate
[11] = F6P titration, ATP 0.5 mM, n = 6, mean (SD)
[12] = GTP titration, F6P 4 mM, n = 3, mean (SD)
[13] = Hill value, GTP titration, F6P 4 mM, n = 3, mean (SD)

## Nc1ncnc2c1ncn2[C@@H]1O[C@H](COP(=O)(O)OP(=O)(O)O)[C@@H](O)[C@H]1O [ADP]
Recombinant human PFK-M
  effect on PFK activity, in words: inhibiting
Recombinant human PFK-M; modulator 600 µM
  change in kcat^ATP/K0.5^ATP compared with control PFK without modulator: −52%
  change in kcat^F6P/K0.5^F6P compared with control PFK without modulator: −13%
PFK
  Effect (activator or inhibitor of PFK): +
Recombinant human PFK-P
  effect on PFK activity, in words: activating
Recombinant human PFK-P; modulator 600 µM
  change in kcat^ATP/K0.5^ATP compared with control PFK without modulator: +39%
  change in kcat^F6P/K0.5^F6P compared with control PFK without modulator: +129%
Recombinant human PFK-P; [1]
  K0.5F6P + modulator: 821.7 (53.4) M
  VmaxF6P + modulator: 2.51 (0.11) moles/min/mg
Recombinant human PFK-P; [2]
  K0.5ATP + modulator: 290.5 (36.0) M
  VmaxATP + modulator: 37.99 (1.74) moles/min/mg

## Nc1ncnc2c1ncn2[C@@H]1O[C@H](COP(=O)(O)O)[C@@H](O)[C@H]1O [AMP]
Recombinant human PFK-M; F6P titration
  decrease in K0.5^F6P by AMP: near two-fold decrease
Recombinant human PFK-M; modulator 1200 µM
  change in kcat^ATP/K0.5^ATP compared with control PFK without modulator: −12%
  change in kcat^F6P/K0.5^F6P compared with control PFK without modulator: −25%
PFK; first of three values marked *
  IC50 or AC50 (activator): 860 µM
PFK
  Effect (activator or inhibitor of PFK): +
PFK; [3]
  IC50 or AC50 (activator): 5800 µM
PFK; third of three values marked *
  IC50 or AC50 (activator): 1550 µM
Recombinant human PFK-P; F6P titration
  decrease in K0.5^F6P by AMP: two-fold decrease
Recombinant human PFK-P; modulator 1200 µM
  change in kcat^ATP/K0.5^ATP compared with control PFK without modulator: +220%
  change in kcat^F6P/K0.5^F6P compared with control PFK without modulator: +162%
Recombinant human PFK-P; [4]
  K0.5F6P + modulator: 607.0 (31.0) M
  VmaxF6P + modulator: 2.13 (0.06) moles/min/mg
Recombinant human PFK-P; [5]
  K0.5ATP + modulator: 94.4 (10.8) M
  VmaxATP + modulator: 28.38 (1.07) moles/min/mg

## Nc1ncnc2c1ncn2[C@@H]1O[C@H](COP(=O)(O)OP(=O)(O)OP(=O)(O)O)[C@@H](O)[C@H]1O [ATP]
Recombinant human PFK-M; [6]
  decrease in specificity constant (ATP inhibition): 21%
Recombinant human PFK-M; ATP concentration from 0.25 mM to 0.5 mM
  increase in specific activity: 23%
Recombinant human PFK-M; ATP concentration from 0.5 mM to 1 mM
  decrease in specific activity: 21%
Recombinant human PFK-M; [7]
  K0.5^ATP: 151 µM and 152 µM and 151.8 (10.0) µM
  Vmax^ATP: 38.4 (0.9) µmoles/min.mg
  kcat^ATP: 56.0 (1.2) s^−1
  kcat^ATP/K0.5^ATP: 0.37 s^−1 µM^−1 and 0.37 (0.12) s^−1 µM^−1
Recombinant human PFK-M; [8]
  h (ATP): 1.03 (0.05)
PFK; first of three values marked *
  IC50: 1100 µM
PFK
  Effect (activator or inhibitor of PFK): -
PFK; [3]
  IC50: 2900 µM
PFK; third of three values marked *
  IC50: 1750 µM
Recombinant human PFK-P; [6]
  decrease in specificity constant (ATP inhibition): 50%
Recombinant human PFK-P; [7]
  K0.5^ATP: 275 µM and 276 µM and 275.6 (84.4) µM
  Vmax^ATP: 27.2 (2.5) µmoles/min.mg
  kcat^ATP: 39.7 (1.7) s^−1
  kcat^ATP/K0.5^ATP: 0.14 s^−1 µM^−1 and 0.14 (0.02) s^−1 µM^−1
Recombinant human PFK-P; [8]
  h (ATP): 0.76 (0.09)
Recombinant human PFK-P; [9]
  K0.5ATP: 326.9 (99.7) M and 217.9 (74.5) M
  VmaxATP: 30.74 (2.92) moles/min/mg and 23.65 (2.40) moles/min/mg

## O=C(O)CC(O)(CC(=O)O)C(=O)O [Citrate]
Recombinant human PFK-M; [10]
  IC50: 982 ± 109 µM
Recombinant human PFK-M; modulator 600 µM
  change in kcat^ATP/K0.5^ATP compared with control PFK without modulator: +5%
  change in kcat^F6P/K0.5^F6P compared with control PFK without modulator: −36%
PFK; first of three values marked *
  IC50: 5900 µM
PFK
  Effect (activator or inhibitor of PFK): -
PFK; [3]
  IC50: 490 µM
PFK; third of three values marked *
  IC50: 6700 µM
Recombinant human PFK-P; [10]
  IC50: 177 ± 132 µM
Recombinant human PFK-P; modulator 600 µM
  change in kcat^ATP/K0.5^ATP compared with control PFK without modulator: +136%
  change in kcat^F6P/K0.5^F6P compared with control PFK without modulator: −78%
Recombinant human PFK-P; [1]
  K0.5F6P + modulator: 1494 (627) M
  VmaxF6P + modulator: 0.43 (0.12) moles/min/mg
Recombinant human PFK-P; [2]
  K0.5ATP + modulator: 46.0 (14.4) M
  VmaxATP + modulator: 10.18 (0.89) moles/min/mg

## O=C(CO)[C@@H](O)[C@H](O)[C@H](O)COP(=O)(O)O [F6P, fructose 6-phosphate]
Recombinant human PFK-M; [11]
  K0.5^F6P: 147 µM and 147.1 (13.6) µM
Recombinant human PFK-P; [11]
  K0.5^F6P: 1333 µM and 1333 (312) µM
Recombinant human PFK-P; control without modulator, run alongside modulator experiments, ATP 0.5mM, N=3, mean (SD)
  K0.5F6P: 1238 (179) M and 1607 (90) M

## Nc1nc2c(ncn2[C@@H]2O[C@H](COP(=O)(O)OP(=O)(O)OP(=O)(O)O)[C@@H](O)[C@H]2O)c(=O)[nH]1 [GTP]
Recombinant human PFK-M; [12]
  K0.5^GTP: 97 µM and 96.7 (8.0) µM
  Vmax^GTP: 17.82 (0.44) µmoles/min.mg
  kcat^GTP: 26.0 (0.6) s^−1
  kcat^GTP/K0.5^GTP: 0.27 s^−1 µM^−1 and 0.27 (0.08) s^−1 µM^−1
Recombinant human PFK-M; [13]
  h (GTP): 1.19 (0.12)
Recombinant human PFK-P; [12]
  K0.5^GTP: 131 µM and 131 (20.9) µM
  Vmax^GTP: 12.30 (0.62) µmoles/min.mg
  kcat^GTP: 17.9 (0.9) s^−1
  kcat^GTP/K0.5^GTP: 0.14 s^−1 µM^−1 and 0.14 (0.04) s^−1 µM^−1
Recombinant human PFK-P; [13]
  h (GTP): 1.12 (0.18)
